How the values were obtained:
[1] = biological target: T1, Aldehyde dehydrogenase, dimeric NADP-preferring (Homo sapiens, UniProt P30838); test: Inhibition of full length human ALDH3A1 expressed in Escherichia coli BL21 (DE3) using benzaldehyde as substrate preincubated for 2 mins followed by substrate addition by spectrophotometry in presence of NADP+
T1 sequence (P30838 whole entry): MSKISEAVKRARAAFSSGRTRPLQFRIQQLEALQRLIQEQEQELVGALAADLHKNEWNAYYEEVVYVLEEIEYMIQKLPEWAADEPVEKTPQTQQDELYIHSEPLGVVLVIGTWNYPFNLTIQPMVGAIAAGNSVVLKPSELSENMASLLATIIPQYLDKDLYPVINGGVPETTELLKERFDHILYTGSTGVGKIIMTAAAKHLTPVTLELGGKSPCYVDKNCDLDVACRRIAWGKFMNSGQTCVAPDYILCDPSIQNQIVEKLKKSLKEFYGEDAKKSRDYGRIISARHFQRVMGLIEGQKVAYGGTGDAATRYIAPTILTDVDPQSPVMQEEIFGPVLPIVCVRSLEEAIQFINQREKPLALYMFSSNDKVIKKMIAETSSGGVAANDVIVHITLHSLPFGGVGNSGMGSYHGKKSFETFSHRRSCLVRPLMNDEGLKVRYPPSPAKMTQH

[2] = biological target: T2, Aldehyde dehydrogenase 1A1 (Homo sapiens, UniProt P00352); test: Inhibition of human ALDH1A1 using propionaldehyde as substrate preincubated for 2 mins followed by substrate addition by spectrophotometry in presence of NAD+
T2 sequence (P00352 whole entry): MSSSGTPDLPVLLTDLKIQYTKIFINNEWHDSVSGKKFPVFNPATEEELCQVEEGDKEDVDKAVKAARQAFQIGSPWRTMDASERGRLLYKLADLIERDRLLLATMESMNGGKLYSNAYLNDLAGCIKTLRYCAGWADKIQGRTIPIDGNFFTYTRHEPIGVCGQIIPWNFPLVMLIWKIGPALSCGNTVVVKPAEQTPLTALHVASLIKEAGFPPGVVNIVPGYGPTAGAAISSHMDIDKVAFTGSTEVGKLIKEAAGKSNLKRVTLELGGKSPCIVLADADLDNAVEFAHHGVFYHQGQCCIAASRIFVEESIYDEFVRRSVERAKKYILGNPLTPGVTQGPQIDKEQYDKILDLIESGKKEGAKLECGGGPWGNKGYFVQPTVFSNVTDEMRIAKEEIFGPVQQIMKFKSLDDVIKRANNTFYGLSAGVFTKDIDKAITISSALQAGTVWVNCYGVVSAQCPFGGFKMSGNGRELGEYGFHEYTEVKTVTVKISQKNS

[3] = biological target: T3, Aldehyde dehydrogenase, mitochondrial (Homo sapiens, UniProt P05091); test: Inhibition of human ALDH2 using propionaldehyde as substrate preincubated for 2 mins followed by substrate addition by spectrophotometry in presence of NAD+
T3 sequence (P05091 whole entry): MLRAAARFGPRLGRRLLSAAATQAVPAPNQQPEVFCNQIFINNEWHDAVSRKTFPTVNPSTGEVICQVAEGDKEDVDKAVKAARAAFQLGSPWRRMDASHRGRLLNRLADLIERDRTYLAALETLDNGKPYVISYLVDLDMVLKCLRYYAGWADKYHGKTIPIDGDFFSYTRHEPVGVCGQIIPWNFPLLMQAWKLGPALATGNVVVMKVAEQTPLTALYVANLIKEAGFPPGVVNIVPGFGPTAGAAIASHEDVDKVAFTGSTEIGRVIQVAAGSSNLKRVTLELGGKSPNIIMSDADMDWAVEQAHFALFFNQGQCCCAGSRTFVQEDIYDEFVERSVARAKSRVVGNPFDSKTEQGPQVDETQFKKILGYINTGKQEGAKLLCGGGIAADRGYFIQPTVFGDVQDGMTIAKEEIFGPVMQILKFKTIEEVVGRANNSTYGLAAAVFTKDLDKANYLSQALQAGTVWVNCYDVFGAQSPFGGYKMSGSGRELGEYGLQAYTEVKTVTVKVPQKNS

[4] = biological target: T3, Aldehyde dehydrogenase, mitochondrial; test: Inhibition of human ALDH2 using propionaldehyde as substrate by Lineweaver-Burk plot analysis
[5] = biological target: T2, Aldehyde dehydrogenase 1A1; test: Competitive inhibition of human ALDH1A1 using propionaldehyde as substrate by Lineweaver-Burk plot analysis
[6] = biological target: T3, Aldehyde dehydrogenase, mitochondrial; test: Inhibition of human ALDH2 by Lineweaver-Burk plot analysis in presence of NAD+
[7] = biological target: T1, Aldehyde dehydrogenase, dimeric NADP-preferring; test: Inhibition of human ALDH3A1 using benzaldehyde as substrate by Lineweaver-Burk plot analysis
[8] = biological target: T1, Aldehyde dehydrogenase, dimeric NADP-preferring; test: Inhibition of human ALDH3A1 by Lineweaver-Burk plot analysis in presence of NADP+
[9] = biological target: T2, Aldehyde dehydrogenase 1A1; test: Noncompetitive/mixed type inhibition of human ALDH1A1 by Lineweaver-Burk plot analysis in presence of NAD+

SMILES | IC50 [1] [nM] | IC50 [2] [nM] | IC50 [3] [nM] | also measured
O=C1C(=O)N(CCCc2ccccc2)c2ccccc21 | 460 | 50 | 1200 | 
O=C1C(=O)N(C/C=C/c2ccccc2)c2ccccc21 | 310 | 70 | > 100000 | 
O=C1C(=O)N(CN2CCOCC2)c2ccccc21 | 1300 | 20000 | > 100000 | 
O=C1C(=O)N(C/C=C/c2ccccc2)c2ccc(Cl)cc21 |  | 570 |  | 
O=C1C(=O)N(CN2CCN(Cc3ccccc3)CC2)c2ccccc21 | 930 | 50000 | > 100000 | 
O=C1C(=O)N(CCc2ccccc2)c2ccccc21 |  | 70 | 3500 | 
O=C1C(=O)N(CCc2ccccc2)c2ccc(Cl)cc21 |  | 90 | 410 | 
O=C1C(=O)N(CCc2ccccc2)c2ccc(Br)cc21 | 18000 | 2000 | 50 | 
Cc1cc(Br)c2c(c1)C(=O)C(=O)N2 | 360 | 720 | 2400 | Ki [4]: 1000 nM; Ki [5]: 900 nM; Ki [6]: 2200 nM; Ki [7]: 380 nM; Ki [8]: 500 nM; Ki [9]: 290 nM
CCCCCN1C(=O)C(=O)c2ccccc21 | 420 | 40 | 1700 | 
O=C1C(=O)N(Cc2ccccc2)c2ccc(Br)cc21 |  | 580 | 2100 | 
O=C1C(=O)N(CN2CCN(Cc3ccc4c(c3)OCO4)CC2)c2ccccc21 | 300 | 12000 | > 100000 | 
O=C1C(=O)N(CN2CCN(Cc3ccc4c(c3)OCO4)CC2)c2ccc(Br)cc21 | 73000 | 15000 | > 100000 | 
O=C1C(=O)N(CN2CCN(Cc3ccc(F)cc3)CC2)c2ccccc21 | 1500 | > 100000 |  | 
O=C1C(=O)N(CN2CCN(Cc3cccc(F)c3)CC2)c2ccccc21 | 1900 | 35000 |  | 
O=C1C(=O)N(CN2CCN(Cc3cccc(Cl)c3)CC2)c2ccccc21 | 1700 | > 100000 |  | 
COc1cccc(CN2CCN(CN3C(=O)C(=O)c4ccccc43)CC2)c1 | 1200 | 34000 |  | 
O=C1C(=O)N(CN2CCN(Cc3ccccc3F)CC2)c2ccccc21 | 1800 | 4000 |  | 
O=C1C(=O)N(Cc2ccccc2)c2ccc(Cl)cc21 |  | 60 | 2100 | 
CN1CCN(CN2C(=O)C(=O)c3ccccc32)CC1 | 1600 | 35000 | > 100000 | 
O=C1C(=O)N(CN2CCN(CN3C(=O)C(=O)c4ccccc43)C2)c2ccccc21 | 1600 | 19000 |  | 

— ChEMBL document CHEMBL3124874, “Development of selective inhibitors for aldehyde dehydrogenases based on substituted indole-2,3-diones” (J Med Chem, 2014)
